For the test, the target named is T1, human FFAR1 (GPR40) (Homo sapiens, UniProt O14842).
T1 construct: Flag; expressed in transfected cells; host or cells: HEK293T
The experiment in a line: NFAT-RE-based reporter gene activity assay (Dual-Glo luciferase) for GPR40 agonistic activity in co-transfected HEK293T cells. Format: cell-based. To be noted: 4-hour treatment; for Efficacy (%): class symbols. Summed up: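 Agonism read as NFAT-RE-driven firefly luciferase over Renilla control (Dual-Glo) after 4 h compound exposure, top concentration 1 µM, 10 half-log steps.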

Bounds are passed on as bounds.

By EC50 is commonly meant the concentration that produces a half-maximal response. Low readings indicate greater potency, high ones weaker potency.

T1 sequence (O14842 whole entry): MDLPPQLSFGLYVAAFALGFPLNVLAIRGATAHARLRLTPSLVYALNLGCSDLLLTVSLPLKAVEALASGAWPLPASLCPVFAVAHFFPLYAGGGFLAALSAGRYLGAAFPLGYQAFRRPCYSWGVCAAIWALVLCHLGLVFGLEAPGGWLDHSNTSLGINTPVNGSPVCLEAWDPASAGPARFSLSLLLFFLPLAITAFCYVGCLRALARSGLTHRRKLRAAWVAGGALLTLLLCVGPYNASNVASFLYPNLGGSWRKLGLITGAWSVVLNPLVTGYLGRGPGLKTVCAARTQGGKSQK

Regarding `COc1cccc(N2CCC(c3oc4cc(C(CC(=O)O)C5CC5)ccc4c3C(=O)Nc3cc(-c4ccccc4)nn3C)CC2)c1` (stereo not drawn) [Compound 302], the 50% effective concentration (EC50) fell in the range of 100 to 500 nM and the “Efficacy (%)” value is on record as “† (100 ≥ Efficacy (%) > 50)”.
In the same order, the values of `COc1cccc(N2CCC(c3oc4cc(C(CC(=O)O)C5CC5)ccc4c3C(=O)Nc3nccn3C)CC2)c1` (stereo not drawn) [Compound 304] are 100 to 500 nM and “††† (Efficacy (%) > 150)”.
In the same order, the values of `COc1ccc(F)c(N2CCC(c3oc4cc(C(CC(=O)O)C5CC5)ccc4c3C(=O)NC(C)(C)C)CC2)c1` (stereo not drawn) [Compound 305] are 100 to 500 nM and “†† (150 ≥ Efficacy (%) > 100)”.
For `COc1ccc(F)c(N2CCC(c3oc4cc(C(CC(=O)O)C5CC5)ccc4c3C(=O)NCC(C)(C)C)CC2)c1` (stereo not drawn) [Compound 306], in that order: 100 to 500 nM and “†† (150 ≥ Efficacy (%) > 100)”.
Take `COc1ccc(F)c(N2CCC(c3oc4cc(C(CC(=O)O)C5CC5)ccc4c3C(=O)NCCC(C)(C)C)CC2)c1` (stereo not drawn) [Compound 307]: the half-maximal effective concentration (EC50) lay within 100 to 500 nM and the “Efficacy (%)” value is “†† (150 ≥ Efficacy (%) > 100)”.
For `COc1ccc(F)c(N2CCC(c3oc4cc(C(CC(=O)O)C5CC5)ccc4c3C(=O)NC3CC3)CC2)c1` (stereo not drawn) [Compound 308], in that order: greater than 500 nM and “†† (150 ≥ Efficacy (%) > 100)”.
In the same order, the values of `COc1ccc(F)c(N2CCC(c3oc4cc(C(CC(=O)O)C5CC5)ccc4c3C(=O)NCC3CC3)CC2)c1` (stereo not drawn) [Compound 309] are 100 to 500 nM and “†† (150 ≥ Efficacy (%) > 100)”.
Turning to `COc1ccc(F)c(N2CCC(c3oc4cc(C(CC(=O)O)C5CC5)ccc4c3C(=O)NCC(C)C)CC2)c1` (stereo not drawn) [Compound 310], the concentration for a half-maximal effect (EC50) was in the range of 100 to 500 nM and the “Efficacy (%)” value is “†† (150 ≥ Efficacy (%) > 100)”.
For the molecule `CCNC(=O)c1c(C2CCN(c3cc(OC)ccc3F)CC2)oc2cc(C(CC(=O)O)C3CC3)ccc12` (stereo not drawn) [Compound 312], the EC50 is 100 to 500 nM and the “Efficacy (%)” value is given as “† (100 ≥ Efficacy (%) > 50)”.
In the same order, the values of `COc1ccc(F)c(N2CCC(c3oc4cc(C(CC(=O)O)C5CC5)ccc4c3C(=O)Nc3ccccc3)CC2)c1` (stereo not drawn) [Compound 314] are 100 to 500 nM and “†† (150 ≥ Efficacy (%) > 100)”.
For `COc1ccc(F)c(N2CCC(c3oc4cc(C(CC(=O)O)C5CC5)ccc4c3C(=O)Nc3ccc(C(C)(C)C)cc3)CC2)c1` (stereo not drawn) [Compound 315], in that order: 100 to 500 nM and “†† (150 ≥ Efficacy (%) > 100)”.
In the same order, the values of `COc1ccc(F)c(N2CCC(c3oc4cc(C(CC(=O)O)C5CC5)ccc4c3C(=O)Nc3cccc(C(C)(C)C)c3)CC2)c1` (stereo not drawn) [Compound 316] are 100 to 500 nM and “†† (150 ≥ Efficacy (%) > 100)”.
For `COc1ccc(F)c(N2CCC(c3oc4cc(C(CC(=O)O)C5CC5)ccc4c3C(=O)Nc3ccc(F)cc3)CC2)c1` (stereo not drawn) [Compound 317], the half-maximal effective concentration (EC50) lay in the range of 100 to 500 nM and the “Efficacy (%)” value is on record as “† (100 ≥ Efficacy (%) > 50)”.
In the same order, the values of `COc1ccc(F)c(N2CCC(c3oc4cc(C(CC(=O)O)C5CC5)ccc4c3C(=O)Nc3ccccc3C)CC2)c1` (stereo not drawn) [Compound 319] are 100 to 500 nM and “†† (150 ≥ Efficacy (%) > 100)”.
In the same order, the values of `COc1ccc(F)c(N2CCC(c3oc4cc(C(CC(=O)O)C5CC5)ccc4c3C(=O)Nc3cccc(C)c3)CC2)c1` (stereo not drawn) [Compound 320] are 10 to 100 nM and “†† (150 ≥ Efficacy (%) > 100)”.
For `COc1ccc(F)c(N2CCC(c3oc4cc(C(CC(=O)O)C5CC5)ccc4c3C(=O)Nc3ccc(C)cc3)CC2)c1` (stereo not drawn) [Compound 321], in that order: 100 to 500 nM and “†† (150 ≥ Efficacy (%) > 100)”.
`COc1cccc(N2CCC(c3oc4cc([C@@H](CC(=O)O)C5CC5)ccc4c3C(=O)Nc3ccccc3Cl)CC2)c1F` [Compound 322]: the EC50 was no more than 10 nM and the “Efficacy (%)” value is “†† (150 ≥ Efficacy (%) > 100)”.
In the same order, the values of `COc1cccc(N2CCC(c3oc4cc([C@@H](CC(=O)O)C5CC5)ccc4c3C(=O)Nc3ccccc3F)CC2)c1F` [Compound 323] are no more than 10 nM and “†† (150 ≥ Efficacy (%) > 100)”.
In the same order, the values of `COc1cccc(N2CCC(c3oc4cc([C@@H](CC(=O)O)C5CC5)ccc4c3C(=O)Nc3ccccc3C)CC2)c1F` [Compound 324] are no more than 10 nM and “†† (150 ≥ Efficacy (%) > 100)”.
In the same order, the values of `COc1cccc(N2CCC(c3oc4cc([C@@H](CC(=O)O)C5CC5)ccc4c3C(=O)Nc3cccc(C)c3)CC2)c1F` [Compound 325] are 100 to 500 nM and “†† (150 ≥ Efficacy (%) > 100)”.
Consider `CCC(c1ccccc1OC)N1CCC(c2oc3cc(C(CC(=O)O)C4CC4)ccc3c2C(=O)Nc2ccccc2F)CC1` (stereo not drawn) [Compound 326], for which the EC50 was 100 to 500 nM and the “Efficacy (%)” value was “†† (150 ≥ Efficacy (%) > 100)”.
For `CC(c1ccccc1OC(F)(F)F)N1CCC(c2oc3cc(C(CC(=O)O)C4CC4)ccc3c2C(=O)Nc2ccccc2F)CC1` (stereo not drawn) [Compound 327], in that order: 100 to 500 nM and “†† (150 ≥ Efficacy (%) > 100)”.
In the same order, the values of `COc1ccccc1C(C)N1CCC(c2oc3cc(C(CC(=O)O)C4CC4)ccc3c2C(=O)Nc2ccccc2F)CC1` (stereo not drawn) [Compound 328] are greater than 500 nM and “†† (150 ≥ Efficacy (%) > 100)”.
In the same order, the values of `Cc1ccccc1NC(=O)c1c(C2CCN(c3ccc4c(c3)OCO4)CC2)oc2cc([C@@H](CC(=O)O)C3CC3)ccc12` [Compound 330] are 10 to 100 nM and “†† (150 ≥ Efficacy (%) > 100)”.
For the molecule `O=C(O)C[C@H](c1ccc2c(C(=O)Nc3ccccc3F)c(C3CCN(c4ccc5c(c4)OCO5)CC3)oc2c1)C1CC1` [Compound 331], the half-maximal effective concentration (EC50) was 100 to 500 nM and the “Efficacy (%)” value is “†† (150 ≥ Efficacy (%) > 100)”.
For `Cc1ccc(Cl)c(NC(=O)c2c(C3CCN(c4ccc5c(c4)OCO5)CC3)oc3cc([C@@H](CC(=O)O)C4CC4)ccc23)c1` [Compound 332], in that order: no more than 10 nM and “†† (150 ≥ Efficacy (%) > 100)”.
With `O=C(O)C[C@H](c1ccc2c(C(=O)Nc3cc(F)ccc3Cl)c(C3CCN(c4ccc5c(c4)OCO5)CC3)oc2c1)C1CC1` [Compound 333], the EC50 is no more than 10 nM and the “Efficacy (%)” value is recorded as “†† (150 ≥ Efficacy (%) > 100)”.
On to `O=C(O)C[C@H](c1ccc2c(C(=O)Nc3cc(F)ccc3Br)c(C3CCN(c4ccc5c(c4)OCO5)CC3)oc2c1)C1CC1` [Compound 334], for which the EC50 is no more than 10 nM and the “Efficacy (%)” value is recorded as “†† (150 ≥ Efficacy (%) > 100)”.
In the same order, the values of `O=C(O)C[C@H](c1ccc2c(C(=O)Nc3cc(C(F)(F)F)ccc3Cl)c(C3CCN(c4ccc5c(c4)OCO5)CC3)oc2c1)C1CC1` [Compound 335] are no more than 10 nM and “†† (150 ≥ Efficacy (%) > 100)”.
For `CCc1ccc(Cl)c(NC(=O)c2c(C3CCN(c4ccc5c(c4)OCO5)CC3)oc3cc([C@@H](CC(=O)O)C4CC4)ccc23)c1` [Compound 337], in that order: no more than 10 nM and “†† (150 ≥ Efficacy (%) > 100)”.
For `COc1ccc(F)c(N2CCC(c3oc4cc([C@@H](CC(=O)O)C5CC5)ccc4c3C(=O)Nc3cc(Cl)ccc3F)CC2)c1` [Compound 338], in that order: 10 to 100 nM and “†† (150 ≥ Efficacy (%) > 100)”.
Turning to `CCc1ccc(Cl)c(NC(=O)c2c(C3CCN(c4cc(OC)ccc4F)CC3)oc3cc([C@@H](CC(=O)O)C4CC4)ccc23)c1` [Compound 339], the concentration giving a half-maximal response (EC50) is no more than 10 nM and the “Efficacy (%)” value is “†† (150 ≥ Efficacy (%) > 100)”.
For `COc1ccc(F)c(N2CCC(c3oc4cc([C@@H](CC(=O)O)C5CC5)ccc4c3C(=O)Nc3cc(C(F)(F)F)ccc3Cl)CC2)c1` [Compound 340], in that order: less than 10 nM and “††† (Efficacy (%) > 150)”.
For `COc1ccc(F)c(N2CCC(c3oc4cc([C@@H](CC(=O)O)C5CC5)ccc4c3C(=O)Nc3cc(F)ccc3Cl)CC2)c1` [Compound 341], in that order: no more than 10 nM and “†† (150 ≥ Efficacy (%) > 100)”.
In the same order, the values of `COc1ccc(F)c(N2CCC(c3oc4cc([C@@H](CC(=O)O)C5CC5)ccc4c3C(=O)Nc3cc(F)ccc3Br)CC2)c1` [Compound 342] are no more than 10 nM and “†† (150 ≥ Efficacy (%) > 100)”.
Consider `COc1ccc(F)c(N2CCC(c3oc4cc([C@@H](CC(=O)O)C5CC5)ccc4c3C(=O)Nc3cc(C)ccc3Cl)CC2)c1` [Compound 343], for which the EC50 is no more than 10 nM and the “Efficacy (%)” value was “††† (Efficacy (%) > 150)”.
For `COc1cccc(N2CCC(c3oc4cc(C(CC(=O)O)C5CC5)ccc4c3C(=O)NC3CCCCC3)CC2)c1` (stereo not drawn) [Compound 344], the EC50 is 100 to 500 nM and the “Efficacy (%)” value is reported as “†† (150 ≥ Efficacy (%) > 100)”.
For `COc1cccc(N2CCC(c3oc4cc(C(CC(=O)O)C5CC5)ccc4c3C(=O)NC34CC(C3)C4)CC2)c1` (stereo not drawn) [Compound 345], the half-maximal effective concentration (EC50) was 100 to 500 nM and the “Efficacy (%)” value is “†† (150 ≥ Efficacy (%) > 100)”.
Turning to `COc1cccc(N2CCC(c3oc4cc(C(CC(=O)O)C5CC5)ccc4c3C(=O)NC3CCC(C)(C)CC3)CC2)c1` (stereo not drawn) [Compound 348], the concentration for a half-maximal effect (EC50) was 100 to 500 nM and the “Efficacy (%)” value is given as “†† (150 ≥ Efficacy (%) > 100)”.
For `COc1cccc(N2CCC(c3oc4cc(C(CC(=O)O)C5CC5)ccc4c3C(=O)NC34CC5CC(CC(C5)C3)C4)CC2)c1` (stereo not drawn) [Compound 349], in that order: 100 to 500 nM and “†† (150 ≥ Efficacy (%) > 100)”.
In the same order, the values of `COc1cccc(N2CCC(c3oc4cc(C(CC(=O)O)C5CC5)ccc4c3C(=O)NC34CC5CC(C)(CC(C)(C5)C3)C4)CC2)c1` (stereo not drawn) [Compound 351] are 10 to 100 nM and “†† (150 ≥ Efficacy (%) > 100)”.
Take `COc1cccc(N2CCC(c3oc4cc(C(CC(=O)O)C5CC5)ccc4c3C(=O)NC3C4CC5CC(C4)CC3C5)CC2)c1` (stereo not drawn) [Compound 352]: the EC50 was in the range of 10 to 100 nM and the “Efficacy (%)” value was “†† (150 ≥ Efficacy (%) > 100)”.

Source of the values: patent EP4682145A1, “BENZOHETEROCYCLIC COMPOUND, AND PREPARATION METHOD THEREFOR AND USE THEREOF” (Cascade Pharmaceuticals, Inc., priority 2023, dated 2024).
